Assay results taken from US20060183716A1, “2-Methylene-19-nor-(20S-24S)-1alpha,25-dihydroxyvitamin D2” (Wisconsin Alumni Research Foundation, priority 2005, published 2006).

What was measured:
calcemic activity = conditions: as described in the '352, '861 and '622 patents; cited from earlier work
vitamin D receptors = biological target: T1, vitamin D receptors (Homo sapiens, UniProt P11473); conditions: as described in the '352, '861 and '622 patents; cited from earlier work
T1 sequence (P11473 1-427): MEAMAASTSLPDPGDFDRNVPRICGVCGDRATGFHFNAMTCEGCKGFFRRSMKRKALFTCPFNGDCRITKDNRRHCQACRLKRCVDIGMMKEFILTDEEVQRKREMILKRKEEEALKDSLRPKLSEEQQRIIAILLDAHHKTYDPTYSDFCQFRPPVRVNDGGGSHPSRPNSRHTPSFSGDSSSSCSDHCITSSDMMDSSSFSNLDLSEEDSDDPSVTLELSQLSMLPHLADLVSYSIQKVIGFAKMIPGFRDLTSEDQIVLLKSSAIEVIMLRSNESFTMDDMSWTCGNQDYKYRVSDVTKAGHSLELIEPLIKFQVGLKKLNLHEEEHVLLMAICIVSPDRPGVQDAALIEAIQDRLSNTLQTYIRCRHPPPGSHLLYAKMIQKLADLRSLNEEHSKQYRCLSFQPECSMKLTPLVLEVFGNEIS

cell differentiation = conditions: as described in the '352, '861 and '622 patents; cited from earlier work
[1] = system: Human promyelocytic leukemia (HL60) cells; experiment: HL-60 cell differentiation (nitro blue tetrazolium reduction); format: cell-based; conditions: compared with 1,25(OH)2D3; four days; FIG. 2
Description: FIG. 2 is a graph comparing the percent HL-60 cell differentiation as a function of the concentration of (20S/24S) 2-MD2 with that of 1,25(OH)2D3.
The study drugs were dissolved in ethanol and the concentrations determined using UV spectrophotometry. Serial dilutions were prepared so that a range of drug concentrations could be tested without changing the final concentration of ethanol (≦0.2%) present in the cell cultures.
Human promyelocytic leukemia (HL60) cells were grown in RPMI-1640 medium containing 10% fetal bovine serum. The cells were incubated at 37° C. in the presence of 5% CO2.
HL60 cells were plated at 1.2×10^5 cells/ml. Eighteen hours after plating, cells in duplicate were treated with drug. Four days later, the cells were harvested and a nitro blue tetrazolium reduction assay was performed (Collins et al., 1979; J. Exp. Med. 149:969-974). The percentage of differentiated cells was determined by counting a total of 200 cells and recording the number that contained intracellular black-blue formazan deposits. Verification of differentiation to monocytic cells was determined by measuring phagocytic activity (data not shown).

[2] = system: intestinal calcium transport; experiment: Intestinal calcium transport (everted gut sac method); format: in vivo, Sprague-Dawley rats; conditions: rats on 0.02% Ca diet, four consecutive ip doses, FIG. 5
From the text: (§1) FIG. 5 is a bar graph comparing the intestinal calcium transport activity of (20S/24S) 2-MD2 with that of 1,25(OH)2D3. Male, weanling Sprague-Dawley rats were placed on Diet 11 (0.47% Ca) diet +AEK for one week followed by Diet 11 (0.02% Ca) +AEK for 3 weeks. The rats were then switched to a diet containing 0.47% Ca for one week followed by two weeks on a diet containing 0.02% Ca. Dose administration began during the last week on 0.02% calcium diet. Four consecutive ip doses were given approximately 24 hours apart. Twenty-four hours after the last dose, blood was collected from the severed neck and the concentration of serum calcium determined as a measure of bone calcium mobilization. The first 10 cm of the intestine was also collected for intestinal calcium transport analysis using the everted gut sac method.

[3] = system: 24-hydroxylase (24Ohase) gene promoter in ROS 17/2.8 (bone) cells; experiment: In vitro transcription assay (24-hydroxylase promoter luciferase reporter); format: cell-based; conditions: ROS 17/2.8 cells, sixteen hours after dosing, FIG. 3
Description: FIG. 3 is a graph comparing the in vitro transcription activity of (20S/24S) 2-MD2 with that of 1,25(OH)2D3.
Transcription activity was, measured in ROS 17/2.8 (bone) cells that were stably transfected with a 24-hydroxylase (24Ohase) gene promoter upstream of a luciferase reporter gene (Arbour et al., 1998). Cells were given a range of doses. Sixteen hours after dosing the cells were harvested and luciferase activities were measured using a luminometer. RLU=relative luciferase units.

[4] = system: bone calcium mobilization; experiment: Bone calcium mobilization (serum calcium); format: in vivo, Sprague-Dawley rats; conditions: rats on 0.02% Ca diet, four consecutive ip doses; compared with 1,25(OH)2D3; FIG. 4
From the text: as §1, with “FIG. 4 is a” for “FIG. 5 is a”, “comparing the bone calcium mobilization” for “comparing the intestinal calcium transport”, “bone calcium mobilization activity of” for “intestinal calcium transport activity of”

[5] = biological target: T2, full-length recombinant rat vitamin D receptor (Rattus norvegicus, UniProt P13053); experiment: Vitamin D receptor competitive binding with [3H]-1,25-(OH)2-D3; conditions: competition with [3H]-1,25-(OH)2-D3; compared with 1,25(OH)2D3; FIG. 1
T2 construct: Full-length recombinant rat receptor was expressed in E. coli BL21(DE3) Codon Plus RIL cells; histidine tag (C); made in house; host or cells: E. coli BL21(DE3) Codon Plus RIL
T2 sequence (P13053 1-423): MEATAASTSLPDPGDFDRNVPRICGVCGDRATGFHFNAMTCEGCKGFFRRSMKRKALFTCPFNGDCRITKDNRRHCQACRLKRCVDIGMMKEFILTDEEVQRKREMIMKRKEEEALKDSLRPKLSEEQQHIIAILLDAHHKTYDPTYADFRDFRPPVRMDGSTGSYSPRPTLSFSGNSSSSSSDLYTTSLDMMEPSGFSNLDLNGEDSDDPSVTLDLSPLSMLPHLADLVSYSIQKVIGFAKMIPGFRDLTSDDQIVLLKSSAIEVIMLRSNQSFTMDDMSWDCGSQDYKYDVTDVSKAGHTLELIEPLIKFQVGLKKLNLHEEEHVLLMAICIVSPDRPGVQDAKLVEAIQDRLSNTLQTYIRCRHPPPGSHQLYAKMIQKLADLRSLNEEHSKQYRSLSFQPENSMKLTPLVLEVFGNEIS
From the text: FIG. 1 is a graph comparing the relative activity of (20S/24S) 2-MD2 and 1,25(OH)2D3 to compete for binding with [^3H]-1,25-(OH)2-D3 to the full-length recombinant rat vitamin D receptor.
Full-length recombinant rat receptor was expressed in E. coli BL21(DE3) Codon Plus RIL cells and purified to homogeneity using two different column chromatography systems. The first system was a nickel affinity resin that utilizes the C-terminal histidine tag on this protein. The protein that was eluted from this resin was further purified using ion exchange chromatography (S-Sepharose Fast Flow). Aliquots of the purified protein were quick frozen in liquid nitrogen and stored at −80° C. until use. For use in binding assays, the protein was diluted in TEDK50 (50 mM Tris, 1.5 mM EDTA, pH 7.4, 5 mM DTT, 150 mM KCl) with 0.1% Chaps detergent. […]
Unlabeled ligands were dissolved in ethanol and the concentrations determined using UV spectrophotometry (1,25(OH)2D3:molar extinction coefficient=18,200 and λmax=265 nm; Analogs: molar extinction coefficient=42,000 and λmax=252 nm). […]
Radiolabeled and unlabeled ligands were added to 100 mcl of the diluted protein at a final ethanol concentration of ≦10%, mixed and incubated overnight on ice to reach binding equilibrium. […] Total binding was determined from the tubes containing only radiolabeled ligand.

Compound | calcemic activity as compared to 1α,25-dihydroxyvitamin D3 (calcemic activity) | binding activity to vitamin D receptors (vitamin D receptors) | cell differentiation activity (cell differentiation) | inducing differentiation of HL-60 cells relative to native hormone [1] | intestinal calcium transport [2] | causing transcription relative to 1,25-(OH)2D3 [3] | bone calcium mobilizing activity [4] | binding to the vitamin D receptor relative to native hormone [5]
1α-hydroxy-2-methylene-19-nor-(20S)-homopregnacalciferol | little if any | relatively high | relatively high |  |  |  |  | 
1α-hydroxy-2-methylene-19-nor-bishomopregnacalciferol | little if any | relatively high | relatively high |  |  |  |  | 
C=C1[C@H](O)CC(=C/C=C2\CCC[C@]3(C)C([C@@H](C)/C=C/[C@H](C)C(C)(C)O)CC[C@@H]23)C[C@H]1O (stereo in doubt) [2-methylene-19-nor-(20S-24S)-1α,25-dihydroxyvitamin D2] |  |  |  | almost equal to the native hormone | does retain some ability to elevate intestinal calcium transport | slightly more effective than 1,25-(OH)2D3 | comparable to 1,25(OH)2D3 | almost equal to the native hormone
C=C1[C@H](O)CC(=C/C=C2\CCC[C@]3(C)[C@@H](CC)CC[C@@H]23)C[C@H]1O [1α-Hydroxy-2-methylene-19-nor-pregnacalciferol] | little if any | relatively high | relatively high |  |  |  |  | 
